For 15 molecules, IC50 results are on record in ChEMBL document CHEMBL1126592, “Bicyclic compounds as ring-constrained inhibitors of protein-tyrosine kinase p56lck” (J Med Chem, 1993).

In this test the target is Tyrosine-protein kinase Lck (Homo sapiens, UniProt P06239). Description: Ability to inhibit autophosphorylation of immunopurified p56Ick.
Sequence of Tyrosine-protein kinase Lck (P06239 whole entry): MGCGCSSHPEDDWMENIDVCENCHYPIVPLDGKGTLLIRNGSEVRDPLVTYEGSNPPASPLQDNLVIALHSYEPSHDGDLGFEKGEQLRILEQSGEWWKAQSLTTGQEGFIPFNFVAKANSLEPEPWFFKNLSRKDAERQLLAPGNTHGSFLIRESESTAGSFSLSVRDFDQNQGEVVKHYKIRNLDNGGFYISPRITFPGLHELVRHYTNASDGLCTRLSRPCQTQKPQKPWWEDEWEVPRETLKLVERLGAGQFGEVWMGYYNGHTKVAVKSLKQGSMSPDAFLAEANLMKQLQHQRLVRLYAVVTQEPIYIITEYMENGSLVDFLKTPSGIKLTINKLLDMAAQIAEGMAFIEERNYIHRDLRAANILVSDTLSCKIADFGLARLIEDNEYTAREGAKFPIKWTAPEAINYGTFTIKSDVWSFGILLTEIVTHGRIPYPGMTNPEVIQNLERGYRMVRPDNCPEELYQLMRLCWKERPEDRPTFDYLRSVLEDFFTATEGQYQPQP
For the molecule `COC(=O)c1ccc2c(O)c(O)ccc2c1`, the IC50 – broadly, the concentration that inhibits the measured activity by half – came out at 25 µM.
Take `NC(=O)c1ccc2cc(O)c(O)cc2c1`: 26 µM corresponded to half-maximal inhibition (IC50).
Molecule `N=c1oc2c(O)c(O)ccc2cc1C(N)=O` returned an IC50 of 750 µM.
`N#C/C(=C\c1cccc(O)c1)C(N)=O` registered an IC50 of 1500 µM.
The value for `N#C/C(=C\c1cc(O)c(O)c(O)c1)C(N)=O` was 2000 µM; that for `N#C/C(=C\c1ccc(O)cc1)C(N)=O` was 1000 µM; that for `COC(=O)c1cc2ccc(O)c(O)c2cn1` was 0.2 µM.
The value for `N=c1oc2ccc(O)cc2cc1C(N)=O` was 100 µM; that for `NC(=O)c1cnc2cc(O)c(O)cc2c1` was 610 µM.
Molecule `N=c1oc2c(O)cccc2cc1C(N)=O` gave a half-maximal inhibitory concentration (IC50) of 100 µM.
In the case of `N=c1oc2ccccc2cc1C(N)=O`, 1500 µM corresponded to half-maximal inhibition (IC50).
`N#C/C(=C\c1cc(O)cc(O)c1)C(N)=O` registered a half-maximal inhibitory concentration (IC50) of 500 µM.
In turn, `N#C/C(=C\c1ccc(O)c(O)c1)C(N)=O` yielded a half-maximal inhibitory concentration (IC50) of 22 µM.
`N=c1oc2cc(O)c(O)cc2cc1C(N)=O` yielded an IC50 of over 2000 µM.
The molecule `N=c1oc2cc(O)ccc2cc1C(N)=O` came in with a half-maximal inhibitory concentration (IC50) of over 2000 µM.
